Reference: patent US20240408086A1, “USE OF LUVADAXISTAT FOR THE TREATMENT OF COGNITIVE IMPAIRMENT” (TAKEDA PHARMACEUTICAL COMPANY LIMITED, priority 2021, published 2024)

System: adult patients with persistent negative symptoms of schizophrenia
Format: in vivo, human
Source text: To assess changes in cognitive impairment associated with schizophrenia (CIAS), secondary endpoints included the 12-week change from baseline in the Brief Assessment of Cognition in Schizophrenia (BACS) composite score, a measure of cognition across multiple domains, and the Schizophrenia Cognition Rating Scale (SCORS) score, a measure of day-to-day cognitive functioning requiring input from an adult informant. Secondary endpoints were not corrected for multiplicity.
The BACS is specifically designed to measure treatment-related improvements in cognition and includes alternate forms. BACS is a reliable and sensitive measure of cognitive function in schizophrenia. The BACS is a cognition assessment battery that assesses 6 domains of cognitive function found to be consistently impaired in schizophrenia: verbal memory; working memory; motor speed; attention; executive functions; and verbal fluency. The primary measure from each test of the BACS is standardized by creating T-scores whereby the mean of the test session of a matched reference healthy participant is set to 50 and the standard deviation set to 10.

[1] = 500 mg once daily, preliminary analysis

O=c1[nH]nc(CCc2ccc(C(F)(F)F)cc2)cc1O [Compound (I), luvadaxistat]
BACS Composite Score, Week 6, Mean (SD) [1]: 35.6 (13.84)
BACS Composite Score, Week 6, Median [1]: 38.0
BACS Composite Score, Week 12, Mean (SD) [1]: 37.6 (13.86)
BACS Composite Score, Week 12, Median [1]: 40.0
BACS Motor Speed Cognition Domain, Change from Baseline to Week 6, Mean (SD) [1]: 0.5 (9.53)
BACS Motor Speed Cognition Domain, Change from Baseline to Week 6, Median [1]: 2.0
BACS Motor Speed Cognition Domain, Change from Baseline to Week 12, Mean (SD) [1]: 2.0 (6.58)
BACS Motor Speed Cognition Domain, Change from Baseline to Week 12, Median [1]: 2.0
BACS Motor Speed Cognition Domain, Week 6, Mean (SD) [1]: 40.7 (12.38)
BACS Motor Speed Cognition Domain, Week 6, Median [1]: 41.0
BACS Motor Speed Cognition Domain, Week 12, Mean (SD) [1]: 41.3 (11.31)
BACS Motor Speed Cognition Domain, Week 12, Median [1]: 40.0
BACS Verbal Memory Cognition Domain, Change from Baseline to Week 6, Mean (SD) [1]: 1.8 (8.65)
BACS Verbal Memory Cognition Domain, Change from Baseline to Week 6, Median [1]: 2.0
BACS Verbal Memory Cognition Domain, Change from Baseline to Week 12, Mean (SD) [1]: 1.6 (10.04)
BACS Verbal Memory Cognition Domain, Change from Baseline to Week 12, Median [1]: 0.0
BACS Verbal Memory Cognition Domain, Week 6, Mean (SD) [1]: 42.1 (12.06)
BACS Verbal Memory Cognition Domain, Week 6, Median [1]: 42.0
BACS Verbal Memory Cognition Domain, Week 12, Mean (SD) [1]: 41.8 (13.82)
BACS Verbal Memory Cognition Domain, Week 12, Median [1]: 41.0
BACS Working Memory Cognition Domain, Change from Baseline to Week 6, Mean (SD) [1]: 0.5 (7.99)
BACS Working Memory Cognition Domain, Change from Baseline to Week 6, Median [1]: 0.0
BACS Working Memory Cognition Domain, Change from Baseline to Week 12, Mean (SD) [1]: 1.7 (7.39)
BACS Working Memory Cognition Domain, Change from Baseline to Week 12, Median [1]: 0.0
BACS Working Memory Cognition Domain, Week 6, Mean (SD) [1]: 40.1 (13.75)
BACS Working Memory Cognition Domain, Week 6, Median [1]: 43.0
BACS Working Memory Cognition Domain, Week 12, Mean (SD) [1]: 42.6 (13.20)
BACS Working Memory Cognition Domain, Week 12, Median [1]: 45.0
BACS Attention Cognition Domain, Change from Baseline to Week 6, Mean (SD) (500 mg, Week 6): 0.9 (6.26)
BACS Attention Cognition Domain, Change from Baseline to Week 6, Median (500 mg, Week 6): 0.0
BACS Attention Cognition Domain, Week 6, Mean (SD) (500 mg, Week 6): 35.5 (12.68)
BACS Attention Cognition Domain, Week 6, Median (500 mg, Week 6): 35.0
BACS Executive Functions Cognition Domain, Change from Baseline to Week 6, Mean (SD) (500 mg, Week 6): 1.3 (7.62)
BACS Executive Functions Cognition Domain, Change from Baseline to Week 6, Median (500 mg, Week 6): 0.0
BACS Executive Functions Cognition Domain, Week 6, Mean (SD) (500 mg, Week 6): 47.0 (10.95)
BACS Executive Functions Cognition Domain, Week 6, Median (500 mg, Week 6): 51.0
BACS Verbal Fluency Cognition Domain, Change from Baseline to Week 6, Mean (SD) (500 mg, Week 6): 0.8 (5.87)
BACS Verbal Fluency Cognition Domain, Change from Baseline to Week 6, Median (500 mg, Week 6): 1.0
BACS Verbal Fluency Cognition Domain, Week 6, Mean (SD) (500 mg, Week 6): 39.6 (10.14)
BACS Verbal Fluency Cognition Domain, Week 6, Median (500 mg, Week 6): 40.0
BACS Attention Cognition Domain, Adjusted Change from Baseline to Week 6, LS Mean (SE) (500 mg, Week 6, MMRM): 1.0 (0.96)
BACS Attention Cognition Domain, Difference from Placebo for Week 6, LS Mean (SE) (500 mg, Week 6, MMRM): 0.0 (1.15)
BACS Executive Functions Cognition Domain, Adjusted Change from Baseline to Week 6, LS Mean (SE) (500 mg, Week 6, MMRM): 1.1 (1.29)
BACS Executive Functions Cognition Domain, Difference from Placebo for Week 6, LS Mean (SE) (500 mg, Week 6, MMRM): 2.3 (1.57)
BACS Verbal Fluency Cognition Domain, Adjusted Change from Baseline to Week 6, LS Mean (SE) (500 mg, Week 6, MMRM): 0.5 (0.74)
BACS Verbal Fluency Cognition Domain, Difference from Placebo for Week 6, LS Mean (SE) (500 mg, Week 6, MMRM): 0.3 (0.89)
BACS Attention Cognition Domain, Change from Baseline to Week 12, Mean (SD) (500 mg, Week 12): 3.1 (9.31)
BACS Attention Cognition Domain, Change from Baseline to Week 12, Median (500 mg, Week 12): 2.0
BACS Attention Cognition Domain, Week 12, Mean (SD) (500 mg, Week 12): 38.0 (14.08)
BACS Attention Cognition Domain, Week 12, Median (500 mg, Week 12): 36.0
BACS Executive Functions Cognition Domain, Change from Baseline to Week 12, Mean (SD) (500 mg, Week 12): 2.0 (9.28)
BACS Executive Functions Cognition Domain, Change from Baseline to Week 12, Median (500 mg, Week 12): 0.0
BACS Executive Functions Cognition Domain, Week 12, Mean (SD) (500 mg, Week 12): 48.5 (11.88)
BACS Executive Functions Cognition Domain, Week 12, Median (500 mg, Week 12): 51.0
BACS Verbal Fluency Cognition Domain, Change from Baseline to Week 12, Mean (SD) (500 mg, Week 12): 1.3 (6.95)
BACS Verbal Fluency Cognition Domain, Change from Baseline to Week 12, Median (500 mg, Week 12): 0.0
BACS Verbal Fluency Cognition Domain, Week 12, Mean (SD) (500 mg, Week 12): 40.6 (10.30)
BACS Verbal Fluency Cognition Domain, Week 12, Median (500 mg, Week 12): 40.0
BACS Attention Cognition Domain, Adjusted Change from Baseline to Week 12, LS Mean (SE) (500 mg, Week 12, MMRM): 3.1 (1.09)
BACS Attention Cognition Domain, Difference from Placebo for Week 12, LS Mean (SE) (500 mg, Week 12, MMRM): 1.2 (1.33)
BACS Executive Functions Cognition Domain, Adjusted Change from Baseline to Week 12, LS Mean (SE) (500 mg, Week 12, MMRM): 2.0 (1.19)
BACS Executive Functions Cognition Domain, Difference from Placebo for Week 12, LS Mean (SE) (500 mg, Week 12, MMRM): 1.4 (1.42)
BACS Verbal Fluency Cognition Domain, Adjusted Change from Baseline to Week 12, LS Mean (SE) (500 mg, Week 12, MMRM): 0.5 (0.91)
BACS Verbal Fluency Cognition Domain, Difference from Placebo for Week 12, LS Mean (SE) (500 mg, Week 12, MMRM): −0.5 (1.11)
